test system: HBV DNA; experiment: HBV DNA assay (real-time qPCR of extracellular HBV DNA, HepG2.2.15 cells); format: cell-based; conditions: Hepatitis B virus, 144 h; Anti HBV DNA production activity in HepG2.2.15 cells, six days
Description: The assay employs real-time qPCR (TaqMan) to directly measure extracellular HBV DNA copy number. HepG2.2.15 cells were plated in 96-well microtiter plates. Only the interior wells were utilized to reduce “edge effects” observed during cell culture, the exterior wells were filled with complete medium to help minimize sample evaporation. On the following day, the HepG2.2.15 cells were washed and the medium was replaced with complete medium containing various concentrations of a test compound in triplicate. 3TC was used as the positive control, while media alone was added to cells as a negative control (virus control, VC). Three days later, the culture medium was replaced with fresh medium containing the appropriately diluted drug. Six days following the initial administration of the test compound, the cell culture supernatant was collected, treated with pronase and then used in a real-time qPCR/TaqMan assay to determine HBV DNA copy numbers. Antiviral activity was calculated from the reduction in HBV DNA levels (IC50).

Which IC50 does the source give for COc1cc2c(cc1OCc1ccccc1)[C@H]1CCC(C)(C)[C@H]1n1cc(C(=O)O)c(=O)cc1-2 (relative stereo) [Example 3, Cis-11-(benzyloxy)-10-methoxy-3,3-dimethyl-7-oxo-1,2,3,3a,7,12b-hexahydrocyclopenta[c]pyrido[2,1-a]isoquinoline-6-carboxylic acid] here?
Its IC50 is 40 nM.

How did the IC50 turn out when COCCCOc1cc2c(cc1Cl)-c1cc(=O)c(C(=O)O)cn1[C@@H]1CCCCC[C@H]21 (relative stereo) [Example 28, cis-13-chloro-12-(3-methoxypropoxy)-2-oxo-2,5a,6,7,8,9,10,10a-octahydrocyclohepta[c]pyrido[2,1-a]isoquinoline-3-carboxylic acid] was run?
The IC50 was under 32 nM.

test system: HBsAg; experiment: not given; conditions: HBsAg secretion reduced by 50% vs no drug control, HepG2.2.15 cells

With COc1cc2c(cc1OCc1ccccc1)[C@H]1CCC(C)(C)[C@H]1n1cc(C(=O)O)c(=O)cc1-2 [Example 4, (3aS,12bR)-11-(benzyloxy)-10-methoxy-3,3-dimethyl-7-oxo-1,2,3,3a,7,12b-hexahydrocyclopenta[c]pyrido[2,1-a]isoquinoline-6-carboxylic acid] as the molecule, how does the IC50 read?
Its IC50 is 3 nM.

test system: HBsAg; experiment: microbe, parasite or virus in culture; conditions: Hepatitis B virus, HepG2.2.15
Description: HepG2.2.15 cells (Acs et al. Proc Natl Acad Sci USA, 84, (1987), 4641-4), a constitutively HBV-expressing cell line were cultured in DMEM+Glutamax-I medium (Invitrogen, Carlsbad, Calif., USA), supplemented with 10% fetal bovine serum (Invitrogen) and G418 (Invitrogen) at a final concentration of 200 mg/L and maintained in 5% CO2 at 37° C.
HepG2.2.15 cells were seeded in duplicate into white, 96-well plates at 1.5×10^4 cells/well. The cells were treated with a three-fold serial dilution series of the compounds in DMSO. The final DMSO concentration in all wells was 1% and DMSO was used as no drug control.
The HBsAg chemiluminescence immunoassay (CLIA) kit (Autobio Diagnostics Co., Zhengzhou, China, Catalog number: CL0310-2) was used to measure the levels of secreted HBV antigens semi-quantitatively. For the detection 50 μL/well culture supernatant was used and HBsAg was quantified using HBsAg chemiluminescence immunoassay (CLIA) kit (Autobio Diagnostics Co., Zhengzhou, China, Catalog number: CL0310-2), 50 μL of the supernatant was transferred to the CLIA assay plate and 50 μL of enzyme conjugate reagent was added into each well. The plates were sealed and gently agitated for 1 hour at room temperature. The supernatant-enzyme-mixture was discarded and wells were washed 6 times with 300 μL of PBS. The residual liquid was removed by plating the CLIA plate right side down on absorbent tissue paper. 25 μL of substrates A and B were added to each well. Luminance was measured using a luminometer (Mithras LB 940 Multimode Microplate Reader) after 10 minutes incubation. Dose-response curves were generated and the IC50 value was extrapolated by using the E-WorkBook Suite (ID Business Solutions Ltd., Guildford, UK). The IC50 was defined as the compound concentration (or conditioned media log dilution) at which HBsAg secretion was reduced by 50% compared to the no drug control.
The compounds of the present invention were tested for their activity to inhibit HBsAg as described herein.

For COc1cc2c(cc1OCc1ccccc1)[C@H]1CCC(C)(C)[C@H]1n1cc(C(=O)O)c(=O)cc1-2 (relative stereo) [Example 3, Cis-11-(benzyloxy)-10-methoxy-3,3-dimethyl-7-oxo-1,2,3,3a,7,12b-hexahydrocyclopenta[c]pyrido[2,1-a]isoquinoline-6-carboxylic acid], which IC50 is on record?
The IC50 was 3 nM.

Which IC50 does the source give for COCCCOc1cc2c(cc1Cl)-c1cc(=O)c(C(=O)O)cn1[C@@H]1CCCCC[C@H]21 (relative stereo) [Example 28, cis-13-chloro-12-(3-methoxypropoxy)-2-oxo-2,5a,6,7,8,9,10,10a-octahydrocyclohepta[c]pyrido[2,1-a]isoquinoline-3-carboxylic acid] here?
The IC50 was 3 nM.

COCCCOc1cc2c(cc1OC)-c1cc(=O)c(C(=O)O)cn1[C@H]1CCN(C(=O)OCc3ccccc3)C[C@H]21 (relative stereo) [Example 29, Trans-2-((benzyloxy)carbonyl)-11-methoxy-12-(3-methoxypropoxy)-8-oxo-2,3,4,4a,8,13b-hexahydro-1H-benzo[c]pyrido[1,2-a][1,6]naphthyridine-7-carboxylic acid] was tested. Which IC50 did it give?
The IC50 was 152 nM.

For COCCCOc1cc2c(cc1OC)-c1cc(=O)c(C(=O)O)cn1[C@H]1CCN(C(=O)OCc3ccccc3)C[C@@H]21 (relative stereo) [Example 30, cis-2-((benzyloxy)carbonyl)-11-methoxy-12-(3-methoxypropoxy)-8-oxo-2,3,4,4a,8,13b-hexahydro-1H-benzo[c]pyrido[1,2-a][1,6]naphthyridine-7-carboxylic acid], which IC50 is on record?
Its IC50 is 564 nM.

Which IC50 does the source give for COc1cc2c(cc1OCc1ccccc1)[C@@H]1CCCC[C@@H]1n1cc(C(=O)O)c(=O)cc1-2 (relative stereo) [Example 32, cis-12-benzyloxy-11-methoxy-8-oxo-1,2,3,4,4a,13b-hexahydropyrido[1,2-f]phenanthridine-7-carboxylic acid] here?
Its IC50 is 44 nM.

For COCCCOc1cc2c(cc1OC)-c1cc(=O)c(C(=O)O)cn1[C@@H]1CCOC[C@@H]21 (relative stereo) [Example 33, Trans-11-methoxy-12-(3-methoxypropoxy)-8-oxo-1,3,4,4a,8,13b-hexahydropyrano[4,3-c]pyrido[2,1-a]isoquinoline-7-carboxylic acid], which IC50 is on record?
The IC50 was 265 nM.

COCCCOc1cc2c(cc1OC)-c1cc(=O)c(C(=O)O)cn1[C@@H]1CCOC[C@H]21 (relative stereo) [Example 34, cis-11-methoxy-12-(3-methoxypropoxy)-8-oxo-1,3,4,4a,8,13b-hexahydropyrano[4,3-c]pyrido[2,1-a]isoquinoline-7-carboxylic acid] was tested. Which IC50 did it give?
Its IC50 is 186 nM.

For COCCCOc1cc2c(cc1OC)-c1cc(=O)c(C(=O)O)cn1[C@@H]1CCS(=O)(=O)C[C@@H]21 (relative stereo) [Example 37, Trans-11-methoxy-12-(3-methoxypropoxy)-8-oxo-1,3,4,4a,8,13b-hexahydropyrido[2,1-a]thiopyrano[4,3-c]isoquinoline-7-carboxylic acid 2,2-dioxide], which IC50 is on record?
The IC50 was 2200 nM.

COc1cc2c(cc1C)[C@H]1CCC(C)(C)[C@H]1n1cc(C(=O)O)c(=O)cc1-2 (relative stereo) [Example 38, Cis-10-methoxy-3,3,11-trimethyl-7-oxo-1,2,3,3a,7,12b-hexahydrocyclopenta[c]pyrido[2,1-a]isoquinoline-6-carboxylic acid] was tested. Which IC50 did it give?
Its IC50 is 36 nM.

For CCCc1cc2c(cc1OC)-c1cc(=O)c(C(=O)O)cn1[C@H]1[C@@H]2CCC1(C)C (relative stereo) [Example 40, Cis-10-methoxy-3,3-dimethyl-7-oxo-11-propyl-1,2,3,3a,7,12b-hexahydrocyclopenta[c]pyrido[2,1-a]isoquinoline-6-carboxylic acid], which IC50 is on record?
Its IC50 is 19 nM.

For COc1cc2c(cc1N1CCCC1)[C@H]1CCC(C)(C)[C@H]1n1cc(C(=O)O)c(=O)cc1-2 (relative stereo) [Example 41, Cis-10-methoxy-3,3-dimethyl-7-oxo-11-(pyrrolidin-1-yl)-1,2,3,3a,7,12b-hexahydrocyclopenta[c]pyrido[2,1-a]isoquinoline-6-carboxylic acid], which IC50 is on record?
The IC50 was under 1.6 nM.

For COc1cc2c(cc1OCc1ccccc1)[C@@H]1CCC(C)(C)[C@@H]1n1cc(C(=O)O)c(=O)cc1-2 [Example 5, (3aR,12bS)-11-(benzyloxy)-10-methoxy-3,3-dimethyl-7-oxo-1,2,3,3a,7,12b-hexahydrocyclopenta[c]pyrido[2,1-a]isoquinoline-6-carboxylic acid], which IC50 is on record?
The IC50 was 308 nM.

Which IC50 does the source give for CCc1cc2c(cc1OC)-c1cc(=O)c(C(=O)O)cn1[C@H]1[C@@H]2CCC1(C)C [Example 39] here?
Its IC50 is 20 nM.

From patent US10053461B2 (Hoffmann-La Roche Inc., priority 2015, dated 2018)
